Drawing on patent US20250026721A1, “COMPOUNDS AND METHODS FOR MODULATING RAS-PI3K” (Vividion Therapeutics, Inc., priority 2023, published 2025), this text covers IC50 for 20 molecules.

The target in the experiment is T1, PIK3CA_C242 (Homo sapiens, UniProt P42336).
T1 construct: endogenous in cells; host or cells: Jurkat cell lysate
Put plainly: Proteomic TE50 (IA-DTB / TMT mass spectrometry) in Jurkat cell lysate. Type of experiment: binding. To be noted: 1 hour at rt, 7-point dose response. The method, then:
Example 4. Proteomic TE50 In vitro TE50 values for PIK3CA_C242 were obtained by treating 500 μg of cell lysate generated from Jurkat cells with DMSO or compound for 1 hour at rt followed by the addition of 200 μM desthiobiotin polyethyleneoxide iodoacetamide (IA-DTB) in DMSO for one hour at rt. Compounds were serially diluted 1:5 for a total of 7 points in order to generate dose response curves. Samples were then precipitated by the addition of 8× ice cold acetone and incubated at -80° C. for two hours. Protein was then pelleted by centrifugation (4,200 RPM, 45 min, 4° C.). The pelleted material was resuspended in 9M urea, 50 mM ammonium bicarbonate and proteins were reduced and alkylated by the addition of DTT and iodoacetamide (10 and 30 mM, respectively). Following reduction and alkylation, samples were exchanged into 2M urea (Zeba spin desalting plates, Thermo Fisher) and digested with Trypsin. IA-DTB labeled peptides were isolated with streptavidin agarose resin. Enriched peptides were eluted by the addition of 50% acetonitrile (ACN) 0.1% formic acid (FA) and dried in a SpeedVac vacuum concentrator. […] Reactions were quenched by the addition of 6.5 μL of 5% hydroxylamine. Samples were then combined and desalted on a Evolute express ABN plate (Biotage, 600-0010-PX01). Targeted TMT measurements were collected using an Orbitrap Lumos Tribrid Mass Spectrometer (Thermo Scientific) coupled to an UltiMate 3000 Series Rapid Separation LC system and autosampler (Thermo Scientific Dionex). Peptides were eluted onto a custom C18 capillary analytical column (75-μm inner diameter fused silica, packed with Acclaim PepMap C18 resin; Thermo Scientific) using an Acclaim PepMap 100 (Thermo 164535) loading column, and separated at a flow rate of […]. Data were acquired using a specific MS3-based TMT method targeting the peptide containing […], +2 charge state) where MS2 peptide fragmentation is triggered upon detection of the peptide precursor ion. Subsequent MS3 analysis was then performed using pre-selected peptide fragment ions that were isolated for fragmentation using synchronous precursor selection. RAW files were converted to MZXML format and searched with the SEQUEST algorithm using the […] software package. TMT quantitation was performed with a filter requiring at least ten summed signal-to-noise (S/N) for control channels. TE50 values were calculated from 7-point dose response curves created using the reporter ion S/N for each channel.

T1 sequence (P42336 whole entry): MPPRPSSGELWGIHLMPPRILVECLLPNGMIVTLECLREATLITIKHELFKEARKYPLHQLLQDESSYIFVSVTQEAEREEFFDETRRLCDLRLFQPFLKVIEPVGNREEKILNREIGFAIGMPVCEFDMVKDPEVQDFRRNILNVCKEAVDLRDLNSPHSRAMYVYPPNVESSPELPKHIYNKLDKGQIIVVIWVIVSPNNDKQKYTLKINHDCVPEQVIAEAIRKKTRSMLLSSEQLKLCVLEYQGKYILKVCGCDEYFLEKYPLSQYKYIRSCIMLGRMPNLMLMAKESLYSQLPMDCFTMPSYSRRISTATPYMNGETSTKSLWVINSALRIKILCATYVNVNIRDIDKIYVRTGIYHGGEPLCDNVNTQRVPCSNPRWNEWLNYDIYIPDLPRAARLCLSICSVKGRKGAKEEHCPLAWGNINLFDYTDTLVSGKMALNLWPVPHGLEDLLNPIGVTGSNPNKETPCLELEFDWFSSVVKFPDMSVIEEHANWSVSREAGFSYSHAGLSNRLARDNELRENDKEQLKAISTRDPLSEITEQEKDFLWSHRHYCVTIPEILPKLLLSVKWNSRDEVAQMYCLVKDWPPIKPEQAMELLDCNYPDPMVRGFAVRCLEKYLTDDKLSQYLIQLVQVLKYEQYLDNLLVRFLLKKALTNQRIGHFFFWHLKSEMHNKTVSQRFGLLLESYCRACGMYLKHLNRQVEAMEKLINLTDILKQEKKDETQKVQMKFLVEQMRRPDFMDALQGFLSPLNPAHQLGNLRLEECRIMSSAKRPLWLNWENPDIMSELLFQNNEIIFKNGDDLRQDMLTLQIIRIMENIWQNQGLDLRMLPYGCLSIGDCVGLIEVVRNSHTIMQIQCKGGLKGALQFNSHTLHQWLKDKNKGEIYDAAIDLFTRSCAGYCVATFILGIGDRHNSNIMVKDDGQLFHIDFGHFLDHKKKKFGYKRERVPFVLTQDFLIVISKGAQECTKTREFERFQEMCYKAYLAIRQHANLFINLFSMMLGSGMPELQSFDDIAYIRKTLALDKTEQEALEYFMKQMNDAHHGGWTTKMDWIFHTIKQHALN
T1 sequence (P27986 whole entry partner): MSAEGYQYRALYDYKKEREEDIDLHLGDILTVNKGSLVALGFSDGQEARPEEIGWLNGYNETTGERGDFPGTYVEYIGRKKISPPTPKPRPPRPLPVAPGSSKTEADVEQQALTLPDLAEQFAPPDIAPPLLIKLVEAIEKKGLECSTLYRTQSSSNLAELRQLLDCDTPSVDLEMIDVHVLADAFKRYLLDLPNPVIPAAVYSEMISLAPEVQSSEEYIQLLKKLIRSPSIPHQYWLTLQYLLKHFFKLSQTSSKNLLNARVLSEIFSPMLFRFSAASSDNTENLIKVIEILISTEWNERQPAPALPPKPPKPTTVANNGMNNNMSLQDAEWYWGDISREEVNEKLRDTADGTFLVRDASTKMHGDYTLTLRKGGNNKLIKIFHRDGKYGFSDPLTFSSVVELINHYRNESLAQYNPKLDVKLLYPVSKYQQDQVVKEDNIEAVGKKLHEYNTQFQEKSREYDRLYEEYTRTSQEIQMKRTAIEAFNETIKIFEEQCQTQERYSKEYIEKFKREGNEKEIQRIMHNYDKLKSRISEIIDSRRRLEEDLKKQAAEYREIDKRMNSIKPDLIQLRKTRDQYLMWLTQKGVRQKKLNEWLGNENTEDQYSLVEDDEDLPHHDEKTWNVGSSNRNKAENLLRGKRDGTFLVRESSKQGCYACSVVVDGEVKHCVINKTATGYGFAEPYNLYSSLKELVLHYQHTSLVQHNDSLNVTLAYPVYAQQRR

As a reminder, the IC50 is the concentration that inhibits the measured activity by half. A low value points to higher potency. In turn, `COc1ccc(S(=O)(=O)N2CCC(F)(C(=O)N[C@H](C)/C=C\S(C)(=O)=O)CC2)c(-c2cc(F)ccc2Cl)c1` [Compound 28, (R,Z)-1-((2′-chloro-5′-fluoro-5-methoxy-[1,1′-biphenyl]-2-yl)sulfonyl)-4-fluoro-N-(4-(methylsulfonyl)but-3-en-2-yl)piperidine-4-carboxamide] gave an IC50 of 630 nM.

`CS(=O)(=O)/C=C/CNC(=O)C1(F)CCN(S(=O)(=O)c2ccc(Cl)cc2-c2ccccc2Cl)CC1` [Compound 40, (E)-1-((2′,5-dichloro-[1,1′-biphenyl]-2-yl)sulfonyl)-4-fluoro-N-(3-(methylsulfonyl)allyl)piperidine-4-carboxamide] gave an IC50 of 210 nM.

`COc1cc(-c2ccccc2Cl)c(S(=O)(=O)N2CCC(F)(C(=O)NC/C=C/S(C)(=O)=O)CC2)cn1` [Compound 188, (E)-1-((4-(2-chlorophenyl)-6-methoxypyridin-3-yl)sulfonyl)-4-fluoro-N-(3-(methylsulfonyl)allyl)piperidine-4-carboxamide] came in with an IC50 of 189 nM.

`COc1ccc(S(=O)(=O)N2CCC(F)(C(=O)NC/C=C/S(C)(=O)=O)CC2)c(-c2ccccc2C)c1` [Compound 44, (E)-4-fluoro-1-((5-methoxy-2′-methyl-[1,1′-biphenyl]-2-yl)sulfonyl)-N-(3-(methylsulfonyl)allyl)piperidine-4-carboxamide] displayed an IC50 of 313 nM.

In turn, `C[C@@H](/C=C\S(C)(=O)=O)NC(=O)C1(F)CCN(S(=O)(=O)c2ccc(Cl)cc2-c2ccccc2)CC1` [Compound 2, (S,Z)-1-((5-chloro-[1,1′-biphenyl]-2-yl)sulfonyl)-4-fluoro-N-(4-(methylsulfonyl)but-3-en-2-yl)piperidine-4-carboxamide] displayed an IC50 of 88.5 nM.

`CC#Cc1ccc(S(=O)(=O)N2CCC(F)(C(=O)N[C@H](C)/C=C\S(C)(=O)=O)CC2)c(-c2ccccc2Cl)c1` [Compound 131, (R,Z)-1-((2′-chloro-5-(prop-1-yn-1-yl)-[1,1′-biphenyl]-2-yl)sulfonyl)-4-fluoro-N-(4-(methylsulfonyl)but-3-en-2-yl)piperidine-4-carboxamide] came in with an IC50 of 209 nM.

With `C[C@@H](/C=C\S(C)(=O)=O)NC(=O)C1(F)CCN(S(=O)(=O)c2ccc(N(C)C)cc2-c2ccccc2Cl)CC1` [Compound 89, (S,Z)-1-((2′-chloro-5-(dimethylamino)-[1,1′-biphenyl]-2-yl)sulfonyl)-4-fluoro-N-(4-(methylsulfonyl)but-3-en-2-yl)piperidine-4-carboxamide], the IC50 was 47 nM.

The molecule `C[C@H](/C=C\S(C)(=O)=O)NC(=O)C1(F)CCN(S(=O)(=O)c2ccc(C3CN(C(=O)OC(C)(C)C)C3)cc2-c2ccccc2Cl)CC1` [Compound 99, tert-butyl (R,Z)-3-(2′-chloro-6-((4-fluoro-4-((4-(methylsulfonyl)but-3-en-2-yl)carbamoyl)piperidin-1-yl)sulfonyl)-[1,1′-biphenyl]-3-yl)azetidine-1-carboxylate] yielded an IC50 of 830 nM.

`CC(C)Oc1ccc(S(=O)(=O)N2CCC(F)(C(=O)N[C@H](C)/C=C\S(C)(=O)=O)CC2)c(-c2ccccc2Cl)c1` [Compound 105, (R,Z)-1-((2′-chloro-5-isopropoxy-[1,1′-biphenyl]-2-yl)sulfonyl)-4-fluoro-N-(4-(methylsulfonyl)but-3-en-2-yl)piperidine-4-carboxamide] yielded an IC50 of 780 nM.

`COc1cccc(-c2cc(C)ccc2S(=O)(=O)N2CCC(F)(C(=O)NC/C=C/S(C)(=O)=O)CC2)c1` [Compound 42, (E)-4-fluoro-1-((3′-methoxy-5-methyl-[1,1′-biphenyl]-2-yl)sulfonyl)-N-(3-(methylsulfonyl)allyl)piperidine-4-carboxamide] had an IC50 of 624 nM.

Turning to `C[C@@H](/C=C\S(C)(=O)=O)NC(=O)C1(F)CCN(S(=O)(=O)c2ccc(Cl)cc2-c2cccc(Oc3ccccc3)c2)CC1` [Compound 267, (S,Z)-1-((5-chloro-3′-phenoxy-[1,1′-biphenyl]-2-yl)sulfonyl)-4-fluoro-N-(4-(methylsulfonyl)but-3-en-2-yl)piperidine-4-carboxamide], the IC50 is 703 nM.

As for `C[C@H](/C=C\S(C)(=O)=O)NC(=O)C1(F)CCN(S(=O)(=O)c2ccc(O)cc2-c2ccccc2Cl)CC1` [Compound 104, (R,Z)-1-((2′-chloro-5-hydroxy-[1,1′-biphenyl]-2-yl)sulfonyl)-4-fluoro-N-(4-(methylsulfonyl)but-3-en-2-yl)piperidine-4-carboxamide], the IC50 turned out to be 620 nM.

`COc1cccc(-c2cc(Cl)ccc2S(=O)(=O)N2CCC(F)(C(=O)N[C@H](C)/C=C/S(C)(=O)=O)CC2)c1` [Compound 80, (R,E)-1-((5-chloro-3′-methoxy-[1,1′-biphenyl]-2-yl)sulfonyl)-4-fluoro-N-(4-(methylsulfonyl)but-3-en-2-yl)piperidine-4-carboxamide] returned an IC50 of 510 nM.

On to `COc1cccc(-c2cc(Cl)ccc2S(=O)(=O)N2CCC(F)(C(=O)NC/C=C/S(C)(=O)=O)CC2)c1` [Compound 36, (E)-1-((5-chloro-3′-methoxy-[1,1′-biphenyl]-2-yl)sulfonyl)-4-fluoro-N-(3-(methylsulfonyl)allyl)piperidine-4-carboxamide], for which the IC50 amounted to 750 nM.

`N#C/C=C/CNC(=O)C1(F)CCN(S(=O)(=O)c2ccc(Cl)cc2-c2ccccc2Cl)CC1` [Compound 69, (E)-N-(3-cyanoallyl)-1-((2′,5-dichloro-[1,1′-biphenyl]-2-yl)sulfonyl)-4-fluoropiperidine-4-carboxamide] returned an IC50 of 520 nM.

Take `COc1cccc(-c2cc(Cl)ncc2S(=O)(=O)N2CCC(F)(C(=O)N[C@@H](C)/C=C\S(C)(=O)=O)CC2)c1` [Compound 270, (S,Z)-1-((6-chloro-4-(3-methoxyphenyl)pyridin-3-yl)sulfonyl)-4-fluoro-N-(4-(methylsulfonyl)but-3-en-2-yl)piperidine-4-carboxamide]: 550 nM corresponded to half-maximal inhibition (IC50).

`COc1ccc(S(=O)(=O)N2CCC(F)(C(=O)NC/C=C/S(C)(=O)=O)CC2)c(-c2ccccc2Cl)c1` [Compound 43, (E)-1-((2′-chloro-5-methoxy-[1,1′-biphenyl]-2-yl)sulfonyl)-4-fluoro-N-(3-(methylsulfonyl)allyl)piperidine-4-carboxamide] returned a concentration for half-maximal inhibition (IC50) of 264 nM.

Turning to `C[C@H](/C=C\S(C)(=O)=O)NC(=O)C1(F)CCN(S(=O)(=O)c2cnc(O)cc2-c2ccccc2Cl)CC1` [Compound 276, (R,Z)-1-((4-(2-chlorophenyl)-6-hydroxypyridin-3-yl)sulfonyl)-4-fluoro-N-(4-(methylsulfonyl)but-3-en-2-yl)piperidine-4-carboxamide], the IC50 is 570 nM.

For the molecule `COc1cccc(-c2cc(OC)ccc2S(=O)(=O)N2CCC(F)(C(=O)NC/C=C/S(C)(=O)=O)CC2)c1` [Compound 39, (E)-1-((3′,5-dimethoxy-[1,1′-biphenyl]-2-yl)sulfonyl)-4-fluoro-N-(3-(methylsulfonyl)allyl)piperidine-4-carboxamide], the IC50 turned out to be 716 nM.

For the molecule `C[C@H](/C=C\S(C)(=O)=O)NC(=O)C1(F)CCN(S(=O)(=O)c2ccc(OC3CC3)cc2-c2ccccc2Cl)CC1` [Compound 101, (R,Z)-1-((2′-chloro-5-cyclopropoxy-[1,1′-biphenyl]-2-yl)sulfonyl)-4-fluoro-N-(4-(methylsulfonyl)but-3-en-2-yl)piperidine-4-carboxamide], half-maximal inhibition (IC50) was put at 860 nM.
